# Assay results reported in patent US20070049578A1, “Cinnamamide compounds as metabotropic glutamate receptor antagonists” (AstraZeneca AB, priority 2005, published 2007).
# Biological target: T1, human mGluR5d (Homo sapiens, UniProt P41594)
# T1 construct: expressed in transfected cells; host or cells: GHEK (human embryonic kidney cells expressing glutamate transporter) for the IP3 assay
# Test: Functional assessment of mGluR5 antagonism in cell lines expressing mGluR5d (FLIPR [Ca2+]i mobilization and/or IP3 turnover; not stated which assay gave the values)
# Format: cell-based
# Details: assays described herein (FLIPR / IP3), cells expressing human mGluR5d
# From the text: (§1) The pharmacological properties of the compounds of the invention can be analyzed using standard assays for functional activity. Examples of glutamate receptor assays are well known in the art as described in for example Aramori et al., Neuron 8:757 (1992), Tanabe et al., Neuron 8:169 (1992), Miller et al., J. Neuroscience 15: 6103 (1995), Balazs, et al., J. Neurochemistry 69:151 (1997). The methodology described in these publications is incorporated herein by reference. Conveniently, the compounds of the invention can be studied by means of an assay that measures the mobilization of intracellular calcium, [Ca^2+]i in cells expressing mGluR5.
# Intracellular calcium mobilization was measured by detecting changes in fluorescence of cells loaded with the fluorescent indicator fluo-3. Fluorescent signals were measured using the FLIPR system (Molecular Devices). A two addition experiment was used that could detect compounds that either activate or antagonize the receptor.
# For FLIPR analysis, cells expressing human mGluR5d were seeded on collagen coated clear bottom 96-well plates with black sides and analysis of [Ca^2+]i mobilization was done 24 hours after seeding.
# FLIPR experiments were done using a laser setting of 0.800 W and a 0.4 second CCD camera shutter speed. Each FLIPR experiment was initiated with 160 μL of buffer present in each well of the cell plate. After each addition of the compound, the fluorescence signal was sampled 50 times at 1 second intervals followed by 3 samples at 5 second intervals. Responses were measured as the peak height of the response within the sample period.
# EC50 and IC50 determinations were made from data obtained from 8-point concentration response curves (CRC) performed in duplicate. Agonist CRC were generated by scaling all responses to the maximal response observed for the plate. Antagonist block of the agonist challenge was normalized to the average response of the agonist challenge in 14 control wells on the same plate.
# We have validated a secondary functional assay for mGluR5d based on Inositol Phosphate (IP3) turnover. IP3 accumulation is measured as an index of receptor mediated phospholipase C turnover. GHEK cells stably expressing the human mGluR5d receptors were incubated with [3H] myo-inositol overnight, washed three times in HEPES buffered saline and pre-incubated for 10 minutes with 10 mM LiCl. Compounds (agonists) were added and incubated for 30 minutes at 37° C. Antagonist activity was determined by pre-incubating test compounds for 15 minutes, then incubating in the presence of glutamate (80 μM) or DHPG (30 μM) for 30 minutes. Reactions were terminated by the addition of perchloric acid (5%). Samples were collected and neutralized, and inositol phosphates were separated using Gravity-Fed Ion-Exchange Columns.
# Functional Assessment of mGluR5 Antagonism in Cell Lines Expressing mGluR5D
# as §1, with “The” for “The pharmacological”, “pharmacological” for “functional”, “Conveniently, the compounds of the invention can be studied by means of an assay that measures the mobilization of intracellular calcium, [Ca^2+]i in cells expressing mGluR5.” left out
# T1 sequence (P41594 21-942 isoform P41594-3 limits assumed): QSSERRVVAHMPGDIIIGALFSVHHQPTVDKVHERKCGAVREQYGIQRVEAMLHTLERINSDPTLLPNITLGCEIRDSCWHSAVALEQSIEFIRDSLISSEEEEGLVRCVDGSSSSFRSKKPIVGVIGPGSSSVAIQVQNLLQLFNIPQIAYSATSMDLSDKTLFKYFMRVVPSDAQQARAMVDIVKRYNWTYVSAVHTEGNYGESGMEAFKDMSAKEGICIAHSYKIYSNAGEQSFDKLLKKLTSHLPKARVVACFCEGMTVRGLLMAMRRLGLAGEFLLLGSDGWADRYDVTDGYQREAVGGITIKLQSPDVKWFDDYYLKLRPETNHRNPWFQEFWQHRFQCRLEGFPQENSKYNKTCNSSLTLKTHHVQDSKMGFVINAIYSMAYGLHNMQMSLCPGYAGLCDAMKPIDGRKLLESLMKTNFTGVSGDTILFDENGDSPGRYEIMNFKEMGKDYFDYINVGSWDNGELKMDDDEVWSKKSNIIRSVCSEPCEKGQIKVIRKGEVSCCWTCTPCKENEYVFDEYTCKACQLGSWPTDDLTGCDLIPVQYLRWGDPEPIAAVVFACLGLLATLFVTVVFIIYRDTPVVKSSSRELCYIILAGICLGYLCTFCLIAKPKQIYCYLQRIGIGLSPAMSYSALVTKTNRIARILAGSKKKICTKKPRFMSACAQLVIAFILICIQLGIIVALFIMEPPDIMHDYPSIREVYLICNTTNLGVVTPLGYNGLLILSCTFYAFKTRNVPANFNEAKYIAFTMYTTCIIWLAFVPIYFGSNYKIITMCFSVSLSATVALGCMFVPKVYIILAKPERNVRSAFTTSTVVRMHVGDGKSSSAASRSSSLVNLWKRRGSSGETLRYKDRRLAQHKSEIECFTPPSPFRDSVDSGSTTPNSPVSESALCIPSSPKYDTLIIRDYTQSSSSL
row,Compound,IC50 [nM]
1,"CCOC(=O)N1CCN(C(=O)/C=C/c2cccc(Cl)c2)CC1 [Example 11.4, ethyl 4-[(2E)-3-(3-chloro-phenyl)prop-2-enoyl]piperazine-1-carboxylate]",1110
2,"COCC1CN(c2nccnc2C#N)CCN1C(=O)/C=C/c1cccc(Cl)c1 (centres unmarked) [Example 29.1, 3-[4-[(2E)-3-(3-chlorophenyl)prop-2-enoyl]-3-(methoxymethyl)piperazin-1-yl]pyrazine-2-carbonitrile]",384

# The next compounds have a lower IC50 than those just listed; values first:
row,IC50 [nM],Compound
1,293,"C[C@@H]1CN(c2ncc(F)cc2C#N)CCN1C(=O)/C=C/c1cccc(OC(F)F)c1 [Example 11.28, 2-((3R)-4-{(2E)-3-[3-(difluoromethoxy)phenyl]prop-2-enoyl}-3-methylpiperazin-1-yl)-5-fluoronicotinonitrile]"
2,33,"C[C@@H]1CN(c2ncccc2C#N)CCN1C(=O)/C=C/c1cccc(Br)c1 [Example 11.22, 2-{(3R)-4-[(2E)-3-(3-bromo-phenyl)prop-2-enoyl]-3-methylpiperazin-1-yl}nicotinonitrile]"
3,10,"O=C(/C=C/c1cccc(Cl)c1)N1CCN(c2ncccc2[N+](=O)[O-])CC1 [Example 11.6, 1-[(2E)-3-(3-chlorophenyl)prop-2-enoyl]-4-(3-nitro-pyridin-2-yl)piperazine]"
